# Results as given in patent US4220755A, “Fortimicin B derivatives and process for production thereof” (Abbott Laboratories, priority 1976, dated 1980).
# Read-outs that look alike come from different tables or passages of the source.
# How the values were obtained:
# Assay in all cases: MIC, agar dilution method, pH 8.0
# Assay type in all cases: cell-based
# [1] = system: Eschericia coli KY4271 ATCC26; conditions: Escherichia coli
# Experimental: (§1) Measurement was carried out according to the agar dilution method, using a medium of pH 8.0, or the Japanese Antibiotic Medicament Standard, using a medium of pH 7.2 Units are in mcg/ml.
# E.C.: Eschericia coli KY4271 ATCC26
# Bacillus subtilis KY4273 = system: Bacillus subtilis KY4273
# Experimental: as §1
# B.S.: Bacillus subtilis KY4273
# [2] = system: Klebsiella pneumoniae KY4275 ATCC10031; conditions: ATCC10031; pH 8.0; Klebsiella pneumoniae KY4275; read-out: Minimum inhibition concentration (MIC), KP
# Experimental: as §1
# K.P.: Klebsiella pneumoniae KY4275 ATCC10031.
# [3] = system: Staphylococcus aureus KY4279 ATCC6538P
# Experimental: as §1
# S.A.: Staphylococcus aureus KY4279 ATCC6538P
# [4] = system: Proteus vulgaris KY4277 ATCC6897
# Experimental: as §1
# [5] = system: Shigella sonnei KY4281 ATCC9290
# Experimental: as §1
# [6] = system: Salmonella typhosa KY4278 ATCC9992; conditions: Salmonella enterica, pH 8, read-out: Minimum inhibition concentration (MIC), ST
# Experimental: as §1
# S.T.: Salmonella typhosa KY4278 ATCC9992
# [7] = ATCC26, pH 8.0, E. coli KY4271, read-out: Minimum inhibition concentration (MIC), EC
# [8] = pH 8.0, Bacillus subtilis KY4273, read-out: Minimum inhibition concentration (MIC), BS
# [9] = pH 8.0, Staphylococcus aureus KY4279, read-out: Minimum inhibition concentration (MIC), SA
# [10] = ATCC6897, pH 8.0, Proteus vulgaris KY4277, read-out: Minimum inhibition concentration (MIC), PV
# [11] = ATCC9290, pH 8.0, Shigella sonnei KY4281, read-out: Minimum inhibition concentration (MIC), SS
# [12] = Bacillus subtilis, KY4273, pH 8, read-out: Minimum inhibition concentration (MIC), BS
# [13] = ATCC26, pH 8, read-out: Minimum inhibition concentration (MIC), EC
# [14] = Proteus vulgaris, ATCC6897, pH 8, read-out: Minimum inhibition concentration (MIC), PV
# [15] = Staphylococcus aureus, pH 8, read-out: Minimum inhibition concentration (MIC), SA
Structure (SMILES),"MIC [1, 7] [µg/mL]",MIC (Bacillus subtilis KY4273; [8]) [µg/mL],MIC [2] [µg/mL],"MIC [3, 9] [µg/mL]","MIC [4, 10] [µg/mL]","MIC [5, 11] [µg/mL]",MIC [6] [µg/mL],MIC (Bacillus subtilis KY4273; [12]) [µg/mL],"MIC [1, 13] [µg/mL]","MIC [4, 14] [µg/mL]","MIC [3, 15] [µg/mL]","MIC ([5]; Shigella sonnei, ATCC9290, pH 8, read-out: Minimum inhibition concentration (MIC), SS) [µg/mL]"
"CO[C@H]1[C@@H](O)[C@H](N)[C@@H](O[C@H]2O[C@H]([C@H](C)N)CC[C@H]2N)[C@H](O)[C@@H]1N(C)C(C)=O [Compound 5, 4-N-acetylfortimicin B]",50,50,> 200,12.5,100,50,50,–,–,–,–,–
"CCC(=O)N(C)[C@H]1[C@@H](O)[C@H](O[C@H]2O[C@H]([C@H](C)N)CC[C@H]2N)[C@@H](N)[C@H](O)[C@@H]1OC [Compound 6, 4-N-propionylfortimicin B]",50,50,> 200,12.5,200,> 200,50,–,–,–,–,–
"CCCC(=O)N(C)[C@H]1[C@@H](O)[C@H](O[C@H]2O[C@H]([C@H](C)N)CC[C@H]2N)[C@@H](N)[C@H](O)[C@@H]1OC [Compound 7, 4-N-(n-butyryl)fortimicin B]",6.25,–,25,6.25,100,50,12.5,12.5,–,–,–,–
"CCCCC(=O)N(C)[C@H]1[C@@H](O)[C@H](O[C@H]2O[C@H]([C@H](C)N)CC[C@H]2N)[C@@H](N)[C@H](O)[C@@H]1OC [Compound 8, 4-N-(n-valeryl)fortimicin B]",> 100,25,> 200,100,> 200,> 200,> 200,–,–,–,–,–
"CO[C@H]1[C@@H](O)[C@H](N)[C@@H](O[C@H]2O[C@H]([C@H](C)N)CC[C@H]2N)[C@H](O)[C@@H]1N(C)C(=O)CCN [Compound 9, 4-N-(β-alanyl)fortimicin B]",0.63,0.08,0.32,0.08,0.63,1.25,0.32,–,–,–,–,–
"CO[C@H]1[C@@H](O)[C@H](N)[C@@H](O[C@H]2O[C@H]([C@H](C)N)CC[C@H]2N)[C@H](O)[C@@H]1N(C)C(=O)CCCN [Compound 10, 4-N-(γ-amino-n-butyryl)fortimicin B]",1.25,0.16,2.5,0.32,1.25,2.5,0.63,–,–,–,–,–
"CO[C@H]1[C@@H](O)[C@H](N)[C@@H](O[C@H]2O[C@H]([C@H](C)N)CC[C@H]2N)[C@H](O)[C@@H]1N(C)C(=O)CCCCCN [Compound 12, 4-N-(ε-amino-n-caproyl)fortimicin B]",> 20,> 20,> 20,> 20,> 20,> 20,> 20,–,–,–,–,–
"CO[C@H]1[C@@H](O)[C@H](N)[C@@H](O[C@H]2O[C@H]([C@H](C)N)CC[C@H]2N)[C@H](O)[C@@H]1N(C)C(=O)CNC(=O)CN [Compound 13, 4-N-glycylglycylfortimicin B]",–,0.32,2.5,0.32,2.5,5,1.25,–,1.25,–,–,–
"CCN(C)[C@H]1[C@@H](O)[C@H](O[C@H]2O[C@H]([C@H](C)N)CC[C@H]2N)[C@@H](N)[C@H](O)[C@@H]1OC [Compound 16, 4-N-ethylfortimicin B]",–,–,50,1.56,–,6.25,3.13,3.13,3.13,6.25,–,–
"CCCN(C)[C@H]1[C@@H](O)[C@H](O[C@H]2O[C@H]([C@H](C)N)CC[C@H]2N)[C@@H](N)[C@H](O)[C@@H]1OC [Compound 17, 4-N-(n-propyl)fortimicin B]",–,–,100,3.13,–,12.5,6.25,12.5,6.25,12.5,–,–
"CCCCN(C)[C@H]1[C@@H](O)[C@H](O[C@H]2O[C@H]([C@H](C)N)CC[C@H]2N)[C@@H](N)[C@H](O)[C@@H]1OC [Compound 18, 4-N-(n-butyl)fortimicin B]",25,25,> 200,–,100,25,12.5,–,–,–,12.5,–
"CCCCCN(C)[C@H]1[C@@H](O)[C@H](O[C@H]2O[C@H]([C@H](C)N)CC[C@H]2N)[C@@H](N)[C@H](O)[C@@H]1OC [Compound 19, 4-N-(n-pentyl)fortimicin B]",100,200,> 200,25,> 200,100,100,–,–,–,–,–
"CO[C@H]1[C@@H](O)[C@H](N)[C@@H](O[C@H]2O[C@H]([C@H](C)N)CC[C@H]2N)[C@H](O)[C@@H]1N(C)CCCN [Compound 20, 4-N-(3-aminopropyl)fortimicin B]",5,2.5,80,–,10,20,1.25,–,–,–,1.25,–
"CO[C@H]1[C@@H](O)[C@H](N)[C@@H](O[C@H]2O[C@H]([C@H](C)N)CC[C@H]2N)[C@H](O)[C@@H]1N(C)CCCCN [Compound 21, 4-N-(4-aminobutyl)fortimicin B]",–,0.32,5,0.32,2.5,2.5,1.25,–,1.25,–,–,–
"CO[C@H]1[C@@H](O)[C@H](N)[C@@H](O[C@H]2O[C@H]([C@H](C)N)CC[C@H]2N)[C@H](O)[C@@H]1N(C)CCCCCN [Compound 22, 4-N-(5-aminopentyl)fortimicin B]",5,0.63,20,1.25,10,5,2.5,–,–,–,–,–
"CO[C@H]1[C@@H](O)[C@H](N)[C@@H](O[C@H]2O[C@H]([C@H](C)N)CC[C@H]2N)[C@H](O)[C@@H]1N(C)CCCCCCN [Compound 23, 4-N-(6-aminohexyl)fortimicin B]",20,5,> 80,5,> 80,> 80,20,–,–,–,–,–
"CO[C@H]1[C@@H](O)[C@H](N)[C@@H](O[C@H]2O[C@H]([C@H](C)N)CC[C@H]2N)[C@H](O)[C@@H]1N(C)CCO [Compound 24, 4-N-(2-hydroxyethyl)fortimicin B]",5,> 80,40,–,10,10,1.25,–,–,–,1.25,–
"CO[C@H]1[C@@H](O)[C@H](N)[C@@H](O[C@H]2O[C@H]([C@H](C)N)CC[C@H]2N)[C@H](O)[C@@H]1N(C)C[C@@H](O)CCCN [Compound 33, 4-N-[(S)-5-amino-2-hydroxypentyl]fortimicin B]",2.5,–,–,0.32,5,–,10,1.25,–,–,–,1.25
